Results on one compound are retold here after patent publication US11666567B2, “Bromocriptine formulations” (VeroScience LLC, priority 2012, dated 2023).

The data set in a line: Volume-based particle size distribution of bromocriptine mesylate by laser diffractometry (Sympatec HELOS). The class given is physicochemical. The conditions noted are these: Table 13, micronized material used for Example 9 tablets.

Excerpt: The parameters Dv10, Dv50, Dv90 and Dv99 represent the particle size at the 10%, 50%, 90% and 99% points of the cumulative volume undersize particle size distribution. Thus, a “Dv10” for a material represents a particle size wherein 10% of the volume of the material consists of particles having a particle size equal to the Dv10 value or smaller. A “Dv50” for a material represents a particle size wherein 50% of the volume of the material consists of particles having a particle size equal to the Dv50 value or smaller. A “Dv90” for a material represents a particle size wherein 90% of the volume of the material consists of particles having a particle size equal to the Dv90 value or smaller. A “Dv99” for a material represents a particle size wherein 99% of the volume of the material consists of particles having a particle size equal to the Dv99 value or smaller.
The particle size distribution ranges defined herein are based upon measurements made using technology and instruments using laser particle size analysis using the instruments and methods developed by [sequence] GmbH, in particular Sympatec HELOS which can provide particle size analysis of dry and wet samples, i.e., of powders, suspensions, emulsions or sprays and is built to the specifications of ISO 13320 “Particle size analysis—laser diffraction methods.”
Finally, the possible role of the particle size of bromocriptine mesylate used in the manufacturing process was investigated. The volume-based particle size distribution for the bromocriptine mesylate used in preparing the tablet batches was measured by laser diffractometry using a Sympatec HELOS Laser Diffractometer.
Bulk batches of bromocriptine mesylate were micronized using a jet mill under a nitrogen atmosphere at a controlled temperature of 0° C. The volume particle size distribution was measured using a Sympatec HELOS H1013 Laser Diffractometer.

With `CC(C)C[C@H]1C(=O)N2CCC[C@H]2[C@]2(O)O[C@](NC(=O)[C@@H]3C=C4c5cccc6[nH]c(Br)c(c56)C[C@H]4N(C)C3)(C(C)C)C(=O)N12.CS(=O)(=O)O` [Micronized Bromocriptine Mesylate], the “% < 1 μm” value is on record as 9%, the “% < 10 μm” value was determined as 98% and the “% < 15 μm” value is reported as 100%.
